Assay results: ChEMBL document CHEMBL1201862, “PubChem BioAssay data set” (2004)
The source made the active and inactive calls.

Tests used:
[1] = viability loss in HepG2 hepatoma cells – cell-based, ATP luminescence, cherry-pick, activator set 2, cytotoxicity control, dose response (AID 1053143); assay type: functional
[2] = toxicity to human HepG2 hepatoma cells – cell-based, plate reader, dry powder samples, cytotoxicity control, dose response (AID 1159569); assay type: functional;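 note: inhibitor potency with signal falling toward the positive control level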
[3] = P. falciparum Dd2 growth inhibitors, dose response, SYBR Green, cherry-picked samples (AID 1159567); assay type: functional, cell-based
[4] = Dd2 malaria parasite growth inhibition potency – SYBR Green, dry powder samples, dose response (AID 1159566); assay type: functional, cell-based;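 note: potency for growth inhibition with lower SYBR green DNA signal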
[5] = growth inhibition of PfATP4-mutant resistant parasites – NITD609-resistant line, SYBR Green, dry powder, dose response (AID 1159571); assay type: functional, cell-based;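 note: parasites synchronized at ring stage by sorbitol before testing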
[6] = growth inhibition of yeast DHODH-expressing 3D7 parasites – SYBR Green, dry powder samples, dose response (AID 1159570); assay type: functional, cell-based;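 note: parasite growth measured after 72 hours of compound exposure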
[7] = Late stage assay provider results from the probe development effort to identify inhibitors of the Plasmodium falciparum M18 Aspartyl Aminopeptidase (M18AAP): radiolabel-based cell-based dose response assay to identify compounds that inhibit P. falciparum growth in RBCs, Set 2..; assay type: functional
cells [8] = test: cells
Major prion protein = Major prion protein (Homo sapiens, UniProt P04156); assay type: functional, cell-based
Cytochrome P450 3A4 = Cytochrome P450 3A4 (Homo sapiens, UniProt P08684);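 note: CYP3A4 tested as one member of a cytochrome P450 panel screen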
Cytochrome P450 2C9 = Cytochrome P450 2C9 (Homo sapiens, UniProt P11712)
Cytochrome P450 2C19 = Cytochrome P450 2C19 (Homo sapiens, UniProt P33261); test: Cytochrome panel assay with activity outcomes. Panel member name: p450-cyp2c19 Compounds with AC50 equal or less than 10 uM are considered active; assay type: functional
cells [9] = assay type: functional, cell-based
cells [10] = assay type: functional, cell-based; remark: listed apart in the source
[11] = target: T1, Trace amine-associated receptor 1 (Homo sapiens, UniProt Q96RJ0); test: Counterscreen for agonists of the human trace amine associated receptor 1 (hTAAR1): Fluorescence-based cell-based high throughput dose response assay to identify hTAAR1 agonist that also desensitize TAAR1 receptor response.; assay type: functional
T1 sequence (Q96RJ0 whole entry): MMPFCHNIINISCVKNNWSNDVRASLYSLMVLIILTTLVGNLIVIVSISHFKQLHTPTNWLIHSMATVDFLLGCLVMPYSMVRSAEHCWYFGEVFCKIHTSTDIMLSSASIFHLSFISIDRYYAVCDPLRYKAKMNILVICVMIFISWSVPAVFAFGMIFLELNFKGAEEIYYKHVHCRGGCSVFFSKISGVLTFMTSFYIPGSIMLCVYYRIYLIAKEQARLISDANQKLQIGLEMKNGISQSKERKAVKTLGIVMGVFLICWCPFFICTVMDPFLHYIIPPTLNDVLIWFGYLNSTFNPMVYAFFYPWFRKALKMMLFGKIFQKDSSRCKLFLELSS

[12] = target: T1, Trace amine-associated receptor 1; test: Fluorescence-based cell-based high throughput dose response assay to identify agonists of the human trace amine associated receptor 1 (TAAR1).; assay type: functional
[13] = blockers of HIV-1 envelope-mediated cell-cell fusion – cherry-pick, dose response (AID 652057); assay type: functional, cell-based
Estrogen receptor = target: T2, Estrogen receptor (Homo sapiens, UniProt P03372);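 note: potency for inhibiting coactivator peptide recruitment to the receptor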
T2 sequence (P03372 whole entry): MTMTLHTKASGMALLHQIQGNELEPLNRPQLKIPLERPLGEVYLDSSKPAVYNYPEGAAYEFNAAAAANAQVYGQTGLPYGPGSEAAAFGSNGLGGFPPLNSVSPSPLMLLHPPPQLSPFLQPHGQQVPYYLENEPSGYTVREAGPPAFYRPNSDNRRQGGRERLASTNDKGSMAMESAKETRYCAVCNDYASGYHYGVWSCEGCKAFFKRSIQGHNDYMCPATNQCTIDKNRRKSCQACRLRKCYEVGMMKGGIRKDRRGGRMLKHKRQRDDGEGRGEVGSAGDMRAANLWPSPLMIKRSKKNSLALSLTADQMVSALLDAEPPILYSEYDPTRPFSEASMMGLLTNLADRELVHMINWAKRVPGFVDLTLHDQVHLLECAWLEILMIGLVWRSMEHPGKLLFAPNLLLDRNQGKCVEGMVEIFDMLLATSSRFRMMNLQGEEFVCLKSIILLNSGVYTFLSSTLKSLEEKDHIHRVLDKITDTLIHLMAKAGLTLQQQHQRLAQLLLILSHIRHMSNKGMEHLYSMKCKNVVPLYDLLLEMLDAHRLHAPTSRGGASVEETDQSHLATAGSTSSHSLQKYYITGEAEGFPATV

Estrogen receptor beta = Estrogen receptor beta (Homo sapiens, UniProt Q92731);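 note: recombinant ER-beta bound to coactivator SRC1 peptide in presence of estradiol agonist; inhibitors block coactivator peptide binding and lower the FRET signal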
Vero = test: cells; assay type: functional; settings: Chlorocebus sabaeus
[14] = PAX8-dependent cell viability loss – plate reader, dry powder, dose response (AID 743049); assay type: functional, cell-based
Paired box protein Pax-8 = Paired box protein Pax-8 (Homo sapiens, UniProt Q06710); test: PAX8 transcriptional activity inhibition in RMG-I – RMG-I cells, luciferase, cherry-pick, dose response (AID 687027); assay type: functional, cell-based;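 note: luciferase reporter driven by Pax8 target thyroperoxidase promoter measured by SteadyGlo luminescence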
[15] = PAX5 cellular inhibition readout – cell-based, plate reader, dry powder samples, selectivity assay for PAX8 inhibitor project, dose response (AID 743047); assay type: functional;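 note: HEK293 cells carrying a Pax5 driven CD19 promoter luciferase reporter; potency of inhibitors that lower reporter luminescence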
[16] = target: T3, Oxysterols receptor LXR-beta (Homo sapiens, UniProt P55055); assay type: functional, cell-based;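 note: agonist activity at LXR measured by a cell-based luminescence readout across a dose range, run as a counterscreen for daf-12 agonists; HEK293 cells with Gal4-LXR fusion and GAL4-driven luciferase reporter; potency for activation of Gal4-LXR reporter so compounds are agonists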
T3 sequence (P55055 whole entry): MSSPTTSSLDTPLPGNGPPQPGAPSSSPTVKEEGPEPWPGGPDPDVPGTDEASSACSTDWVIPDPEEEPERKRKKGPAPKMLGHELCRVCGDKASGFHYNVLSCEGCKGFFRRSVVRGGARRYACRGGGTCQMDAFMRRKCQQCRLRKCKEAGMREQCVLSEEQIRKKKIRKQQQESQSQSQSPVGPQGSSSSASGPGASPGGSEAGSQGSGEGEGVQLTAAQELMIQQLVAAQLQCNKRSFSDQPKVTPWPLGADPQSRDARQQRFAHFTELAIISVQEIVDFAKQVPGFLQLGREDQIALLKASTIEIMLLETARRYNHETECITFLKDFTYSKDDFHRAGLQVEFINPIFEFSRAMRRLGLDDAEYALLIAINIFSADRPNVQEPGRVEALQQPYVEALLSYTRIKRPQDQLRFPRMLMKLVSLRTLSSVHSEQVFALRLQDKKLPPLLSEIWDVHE

[17] = target: Heat shock protein HSP 90-alpha (Homo sapiens, UniProt P07900); assay type: functional, organism-based
[18] = target: Luciferin 4-monooxygenase (Photinus pyralis, UniProt P08659); test: inhibition of purified Photinus pyralis luciferase – biochemical, luminescence, dose response (AID 1891)
[19] = Luminescence Cell-Based Dose Retest to Confirm Inhibitors of Cancer Stem Cells. [Related pubchem assays (depositor defined):AID2717, AID2721]; assay type: functional; settings: Homo sapiens
[20] = Luminescence Cell-Based Dose Confirmation HTS to Identify Inhibitors of Platelet Dense Granule Release. [Related pubchem assays: 1663 (Primary HTS), 1678 (Summary of Project)]; assay type: functional
[21] = HIV-1 Vif–A3G interaction blockers – biochemical, TR-FRET, GST-Vif 1-94, biotin-A3G peptide, dose response retest, primary screen (AID 1117319); assay type: functional;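 note: TR-FRET signal of purified GST-Vif binding a biotinylated A3G peptide; inhibitors lower the FRET signal by blocking Vif and A3G binding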
Protein Tat = target: T4, Protein Tat (Human immunodeficiency virus type 1 group M subtype B (isolate HXB2)(HIV-1), UniProt P04608); assay type: functional;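 note: tat binding to TAR RNA read out by fluorescence polarization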
T4 sequence (P04608 whole entry): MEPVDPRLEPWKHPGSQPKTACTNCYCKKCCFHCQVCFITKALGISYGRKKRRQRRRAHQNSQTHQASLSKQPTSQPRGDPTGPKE

Fatty acid synthase [22] = target: T5, Fatty acid synthase (Homo sapiens, UniProt P49327); test: inhibition of human FAS-TE enzyme activity – biochemical, endpoint fluorescence intensity, uHTS hits, dose response (AID 624327); assay type: functional;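 note: fluorescence from hydrolysis of an O-methyl fluorescein acyl ester substrate by the enzyme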
Fatty acid synthase [23] = target: T5, Fatty acid synthase; test: inhibition of human FAS-TE enzyme activity – biochemical, kinetic fluorescence intensity, dose response (AID 624326); assay type: functional;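 note: rate of fluorescence rise from hydrolysis of a fluorogenic O-methyl fluorescein ester substrate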

O=C(Oc1cccc(/C=N/NC(=O)c2ccccn2)c1)c1ccc([N+](=O)[O-])cc1
AC50 [1]: > 52 µM (inactive)

c1cncc(-c2ccc([C@@H]3[C@@H]4CN(Cc5nccs5)C[C@H]3N4)cc2)c1
AC50 [2]: 79.6 µM (active) | AC50 [3]: 2.15 µM (active) | AC50 [4]: 1.72 µM (active) | AC50 [5]: 2.03 µM (active) | AC50 [6]: 2.97 µM (active)

COc1cc(Br)c(CCNc2c3c(nc4ccccc24)CCCC3)cc1OC
IC50 [7]: 3 µM (active)

CC(=O)c1nnn(-c2nc(N)nc(N(c3ccccc3)c3ccccc3)n2)c1C
IC50 (cells [8]): > 138 µM (inactive) | IC50 (Major prion protein): 1.92 µM (active) | AC50 (Cytochrome P450 3A4): inconclusive | AC50 (Cytochrome P450 2C9): 31.6 µM (inconclusive) | AC50 (Cytochrome P450 2C19): 25.1 µM (inconclusive)

COc1ccc(CCN(C)c2ccnc3cc(Cl)ccc23)cc1OC
IC50 [7]: 5.75 µM (active)

c1ccc(CCNC2CCCCCC2)cc1
EC50 (cells [9]): > 29.9 µM (inactive) | IC50 (cells [10]): > 29.9 µM (inactive) | IC50 [11]: 1.72 µM (active) | EC50 [12]: 0.495 µM (active)

O=C(CC(NCCc1ccccc1)C(=O)O)Nc1ccc(O)cc1 (stereo not given)
EC50 (cells [9]): > 29.9 µM (inactive) | IC50 (cells [10]): > 29.9 µM (inactive) | IC50 [11]: > 29.9 µM (inactive) | EC50 [12]: 7.65 µM (active)

C[C@@H]1CN([C@H](C)CO)S(=O)(=O)c2ccc(-c3ccncc3)cc2O[C@@H]1CN(C)Cc1ccc(Oc2ccccc2)cc1
AC50 [13]: 22.4 µM (active) | AC50 [2]: > 100 µM (inactive) | AC50 [3]: 1.16 µM (active) | AC50 [4]: 0.539 µM (active) | AC50 [5]: 0.616 µM (active) | AC50 [6]: 0.589 µM (active)

O=C(CCC(=O)Nc1nnc(C2CCCCC2)s1)NCC1CCCO1 (stereo not given)
IC50 (Estrogen receptor): > 50 µM (not active) | IC50 (Estrogen receptor beta): > 50 µM (not active)

O=C1/C(=C/c2cccc(Br)c2)SC(=S)N1CCC(=O)N(CCO)c1ccccc1
CC50 (Vero): > 25 µM (active) | AC50 [14]: 34.3 µM (active) | AC50 (Paired box protein Pax-8): 8.17 µM (active) | AC50 [15]: 91.4 µM (active)

O=c1[nH]c(=O)n(C2CC(O)C(CO)O2)cc1I (stereo not given)
EC50 [16]: > 67.6 µM (inactive)

Oc1ccc(N=Nc2ccc3ccccc3c2)cc1
AC50 [17]: 4.38 µM (active) | EC50 [18]: 712 nM (active) | EC50 [16]: > 67.5 µM (inactive) | AC50 [19]: 3.06 µM (active) | EC50 [20]: 3.76 µM (active)

O=C(NCC1CCCO1)c1ccc2c3n(nc2c1)-c1ccccc1CO3 (stereo not given)
AC50 [1]: > 52 µM (inactive)

C[C@@H]1CN([C@H](C)CO)S(=O)(=O)c2ccc(-c3cccc(C(=O)N(C)C)c3)cc2O[C@H]1CN(C)Cc1ccc2c(c1)OCO2
AC50 [2]: 64.7 µM (active) | AC50 [3]: 2.57 µM (active) | AC50 [4]: 1.3 µM (active) | AC50 [5]: 1.51 µM (active) | AC50 [6]: 2.27 µM (active)

COc1ccc(/C=C(/NC(C)=O)C(=O)O)cc1
AC50 (Cytochrome P450 2C9): 10 µM (inconclusive) | AC50 (Cytochrome P450 2C19): 11.2 µM (inconclusive) | IC50 [21]: > 100 µM (active)

O=C1NC(=O)C(=CN2CCc3ccccc32)C(=O)N1
IC50 (Protein Tat): > 100 µM (active)

COc1cc(CCN)ccc1O
EC50 (cells [9]): > 29.9 µM (inactive) | IC50 (cells [10]): > 29.9 µM (inactive) | IC50 [11]: 21.6 µM (inactive) | EC50 [12]: 2.4 µM (active)

CC(Cc1ccccc1)NCCC(c1ccccc1)c1ccccc1 (stereo not given)
AC50 [1]: 14.8 µM (active) | AC50 [19]: 10 µM (active)

O=C(Nc1ccccn1)c1csc2c1CCCC2
EC50 [16]: > 67.5 µM (inactive)

COc1ccc(CCN(C)c2ccnc3ccccc23)cc1OC
IC50 [7]: 12 µM (inactive)

Cc1ccc(NC(=O)c2cc(S(=O)(=O)N(C)C)ccc2N2CCCC2)cc1F
IC50 (Fatty acid synthase [22]): 13.3 µM (active) | IC50 (cells [8]): > 138 µM (inactive) | IC50 (Major prion protein): 9.92 µM (active) | IC50 (Fatty acid synthase [23]): 6.47 µM (active)

Cc1ccc(C2SCC(=O)N2Cc2cn3ccsc3n2)o1 (stereo not given)
IC50 [21]: > 100 µM (active)

CCc1cc2c(CN3CCN(CC)CC3)cc(=O)oc2cc1O
IC50 [21]: > 100 µM (active)

O=C(CSc1ncnc2ccccc12)NCCc1ccccc1
IC50 (cells [8]): > 138 µM (inactive) | IC50 (Major prion protein): 6.69 µM (active)
